Results taken from patent US10517889B2, “Modulators of SMAD7 expression” (Ionis Pharmaceuticals, Inc., priority 2017, dated 2019).
Strand notation (5' to 3'): a small letter for the sugar, then the base; units joined by * are phosphorothioate-linked, units joined directly phosphodiester-linked; [ ] holds rarer units or linkages, { } end groups; capitals alone tell only the bases. k = constrained ethyl (cEt); [5mC] = 5-methylcytosine; d = 2'-deoxy (DNA)

Tests used:
[1] = tested on: human SMAD7 mRNA; test: Antisense inhibition of human SMAD7 mRNA expression in Hep3B cells by 3-10-3 cEt gapmers, 10,000 nM, electroporation (Example 2); type: cell-based; settings: Hep3B cells, approximately 24 hours; for % Inhibition: electroporation with 10,000 nM antisense oligonucleotide
Summary of the method: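 Hep3B, 20,000 cells/well; electroporation, 10,000 nM ASO; ~24 h. Readout: SMAD7 mRNA by qRT-PCR (RTS5062), RIBOGREEN-normalised; % inhibition vs untreated.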

[2] = tested on: human SMAD7 mRNA; test: Dose-dependent inhibition of human SMAD7 mRNA expression in Hep3B cells (Example 3, Study 1 and 2); type: cell-based; settings: electroporation; for % inhibition of SMAD7 mRNA expression: approximately 16 hours; for IC50: Study 2 (740-20000 nM)
Summary of the method: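 Hep3B cells, 20,000 per well, electroporated with antisense oligonucleotide at 0.31, 1.25, 5.00 or 20.00 μM (first series) or 0.74, 2.22, 6.67 or 20.00 μM (second series). After ~16 h, SMAD7 mRNA measured by RT-qPCR (RTS5062), normalised to RIBOGREEN total RNA. Percent inhibition vs untreated cells; IC50 derived.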

[3] = SMAD7 mRNA, primer probe set RTS5062, relative to untreated control cells
[4] = 740 nM, Study 2, relative to untreated control cells
[5] = SMAD7 mRNA by RT-PCR (RTS5062), relative to untreated control cells

| Substance | % Inhibition [1, 3] [%] | % inhibition of SMAD7 mRNA expression [2, 4] [%] | % inhibition of SMAD7 mRNA expression ([2]; 2220 nM, Study 2) [%] | % inhibition of SMAD7 mRNA expression ([2]; 6670.0 nM, Study 2) [%] | % inhibition of SMAD7 mRNA expression ([2]; 20000.0 nM, Study 2) [%] | IC50 [2] [µM] | % inhibition of SMAD7 mRNA expression ([1]; electroporation, 10,000 nM, 3-10-3 cEt gapmers targeting SEQ ID NO: 3 and 4) [%] | % Inhibition [1, 5] [%] |
| --- | --- | --- | --- | --- | --- | --- | --- | --- |
| 829864 (antisense kG*kG*kG*dT*dA*dA*d[5mC]*dT*dG*d[5mC]*dT*dG*d[5mC]*kG*kG*kT) [compound 829864] | 68 | 0 | 33 | 67 | 76 | 1 |  |  |
| 829942 (kG*k[5mC]*kA*dT*d[5mC]*dT*dG*dG*dA*d[5mC]*dA*dG*dT*k[5mC]*kA*kG; antisense) [compound 829942] |  | 44 | 70 | 84 | 94 | < 0.7 | 92 |  |
| 829956 (k[5mC]*k[5mC]*kT*dT*dG*dT*d[5mC]*dA*d[5mC]*d[5mC]*d[5mC]*dG*dT*k[5mC]*kT*kG; antisense) [compound 829956] | 66 | 65 | 82 | 89 | 95 | 1 |  |  |
| 829980 (kT*kT*kG*dA*dT*dA*dT*dT*dT*dA*dG*d[5mC]*dT*kG*kT*k[5mC]; antisense) [compound 829980] | 56 | 52 | 63 | 79 | 92 | 3 |  |  |
| 829995 (kT*kG*kG*dA*dG*dG*d[5mC]*dA*dG*dG*dG*d[5mC]*d[5mC]*kG*k[5mC]*kG; antisense) [compound 829995] | 78 | 36 | 74 | 76 | 84 | 8 |  |  |
| 830010 (antisense kG*kT*k[5mC]*dT*d[5mC]*dA*dA*dA*dT*dG*dG*dG*d[5mC]*kT*kT*k[5mC]) [compound 830010] | 68 | 0 | 12 | 52 | 72 | 1 |  |  |
| 830028 (antisense k[5mC]*kA*kG*dT*d[5mC]*dA*dA*dG*dT*dT*dA*d[5mC]*dA*kG*kT*k[5mC]) [compound 830028] |  | 54 | 70 | 85 | 93 | 3 |  | 75 |
| 830044 (k[5mC]*kG*kA*dT*dT*dG*dG*d[5mC]*dA*dG*dG*dT*dT*kA*kA*kT; antisense) [compound 830044] |  | 47 | 61 | 80 | 93 | 10 |  | 60 |
| 830051 (kT*kA*kG*dT*dT*dT*d[5mC]*d[5mC]*dG*dA*dT*dT*dG*kG*k[5mC]*kA; antisense) [compound 830051] |  | 0 | 18 | 42 | 67 | 2 |  | 84 |
| 830053 (kG*kG*kG*dT*dG*dA*dG*dT*dA*dA*d[5mC]*d[5mC]*dA*kG*k[5mC]*kT; antisense) [compound 830053] |  | 29 | 56 | 79 | 87 | 2 |  | 68 |
| 830067 (kG*kA*kA*dA*dT*dG*dG*dT*dG*d[5mC]*dT*d[5mC]*dT*kG*k[5mC]*k[5mC]; antisense) [compound 830067] |  | 23 | 59 | 80 | 88 | 10 |  | 63 |
| 830095 (kT*kG*kA*dG*dT*dA*dA*dA*d[5mC]*dA*dA*dT*dA*k[5mC]*k[5mC]*k[5mC]; antisense) [compound 830095] |  | 3 | 37 | 42 | 60 | 2 |  | 73 |
